Assay results from patent US20200396997A1, “A STABLE AGROCHEMICAL COMPOSITION” (priority 2018, published 2020).

Legend:
Assay type in all cases: physicochemical
[1] = Study of chloronicotinyl compositions with and without EO/PO block copolymer end-capped with methyl group (7 and 14 days AHS)
Description: Study of Chloronicotinyl Compositions Having EO/PO Block Copolymer End-Capped with Methyl Group and without Having EO/PO Block Polymer End-Capped with Methyl Group
The composition described in Example-4 (having EO/PO block copolymer end-capped with methyl group) prepared according to the process disclosed in the present invention was tested against the composition described in Example-7 (having no EO/PO block copolymer). The objective of study was to determine the effect of EO/PO block copolymer end-capped with alkyl group on chloronicotinyl compounds in preventing degradation of the compositions as well as the overall stability to the compositions.

[2] = Comparative study of compositions with end-capped vs non-end capped EO/PO block polymer (7 and 14 days AHS)
Description: Comparative Study of the Compositions with EO/PO Block Copolymer End-Capped with Methyl Group and Non-End Capped EO/PO Block Polymer
The composition described in Example-1 (having EO/PO block copolymer end-capped with methyl group) prepared according to the process disclosed in the present invention was tested against the composition described in Example-3 (having non-alkyl end-capped EO/PO block copolymer). The objective of study was to determine the effect EO/PO block copolymer end-capped with alkyl group in preventing degradation of active ingredients and to impart overall stability to the composition.

[3] = Stability study of active ingredients in various storage conditions (unpacked / water soluble pouch); settings: composition of Example-1; for % Degradation: 14 days AHS at 54° C. vs ambient; for 14 D AHS / AMB: content of active; for 14 D AHS: 14 days AHS at 54° C.; for AMB: ambient
Description: Stability Study of Active Ingredients in Various Storage Conditions
The composition described in Example-1 prepared according to the process disclosed in the present invention was tested to determine the stability of active ingredients when subjected to various storage conditions. Degradation of active ingredients was calculated at ambient conditions and in 14 days AHS at 54° C. for the composition kept as unpacked and as packed in water soluble pouch. Acetamiprid and Acephate both found to be stable in unpacked as well as when packed in the water soluble pouch.

[4] = Stability of active ingredients in real time study (19 months ambient); settings: composition of Example-2
Description: Stability of Active Ingredients Observed in Real Time Study
The composition prepared in Example-2 according to the process disclosed in the present invention is kept for real time study to observe degradation pattern of active ingredients. The composition was kept for 19 months in ambient conditions. Acetamiprid and Acephate found to be very stable with 3.5% and 2.31% degradation respectively. This resulted into an overall stable agrochemical composition.

[5] = 19 months in ambient conditions

Row | Structure (SMILES) | Degradation observed ([1]; 7 days AHS, active in composition comprising EO/PO block copolymer end-capped with methyl group (Example-4)) | Degradation observed ([1]; 7 days AHS, active in composition prepared without using end-capped EO/PO block copolymer (Example-7)) | Degradation observed ([1]; 14 days AHS, active in composition comprising EO/PO block copolymer end-capped with methyl group (Example-4)) | Degradation observed ([1]; 14 days AHS, active in composition prepared without using end-capped EO/PO block copolymer (Example-7)) | Degradation observed ([2]; 7 days AHS, active in composition comprising EO/PO block copolymer end-capped with methyl group (Example-1)) | Degradation observed ([2]; 7 days AHS, active in composition comprising non end-capped EO/PO block copolymer (Example-3)) | Degradation observed ([2]; 14 days AHS, active in composition comprising EO/PO block copolymer end-capped with methyl group (Example-1)) | Degradation observed ([2]; 14 days AHS, active in composition comprising non end-capped EO/PO block copolymer (Example-3)) | % Degradation ([3]; Packed in Water Soluble Pouch) | % Degradation ([3]; Without Packing) | stability of active (in words) ([3]; unpacked as well as packed in the water soluble pouch) | 14 D AHS ([3]; Packed in Water Soluble Pouch) | 14 D AHS ([3]; Without Packing) | AMB ([3]; Packed in Water Soluble Pouch) | AMB ([3]; Without Packing) | degradation ([4]; 19 Month Real Time) | degradation [4, 5] | stability of active (in words) [4, 5] | 19 Month Real Time ([4]; content of active, 19 months in ambient conditions) | Ambient ([4]; content of active, start)
1 | N#C/N=C1\SCCN1Cc1ccc(Cl)nc1 [Thiacloprid] | 0.58% | 5.1% | 0.93% | 7.91% | – | – | – | – | – | – | – | – | – | – | – | – | – | – | – | –
2 | COP(=O)(NC(C)=O)SC (centres unmarked) [Acephate, N-(Methoxy-methylsulfanylphosphoryl) acetamide] | – | – | – | – | 0.64% | 1.5% | 1.02% | 1.92% | 1.29% | 0.75% | stable | 87.13 | 87.81 | 88.59 | 88.59 | 3.50 | 2.31% | very stable | 85.03 | 88.11
